This is an account of results in patent publication US20180177792A1, “COMPOSITIONS AND METHODS FOR TREATING PATIENTS WITH RTK MUTANT CELLS” (IGNYTA, INC., priority 2015, published 2018).

Where two headings read alike, the source gives them in different places.

One assay addresses T1, BaF3-tel/trkB cells (Homo sapiens, UniProt Q16620).
T1 construct: fused on or other part: P41212 (Transcription factor ETV6)
As to the kind of experiment: growth inhibition, Ba/F3-tel/trkB cells. The conditions noted are these: read-out: IC50, Table 9. In kind it is cell-based, murine.

For a further assay, the target named is T2, BaF3-tel/trkC cells (Homo sapiens, UniProt Q16288).
T2 construct: fused on or other part: P41212 (Transcription factor ETV6)
As to the kind of experiment: growth inhibition, Ba/F3-tel/trkC cells. In kind it is cell-based, murine.

Assay [1] deals with T3, BaF3-tel/trkA-10 nMA(G595R) cells (Homo sapiens, UniProt P04629, G595R, cells depend on it).
T3 construct: IC50; other: BaF3-tel/trkA-10 nMA(G595R); fused on or other part: P41212 (Transcription factor ETV6)
In kind it is cell-based, murine. The conditions noted are these: BaF3-tel/trkA_G595R. The method, then:
(§1) Input Ba/F3-Tel/TrkA cell line was an engineered cell line harboring a recombinant TrkA fusion gene ETV6-TrkA. […] Cell viability was evaluated by trypan blue and counted every two days (FIG. 9).
(§2) Each treatment condition was performed in duplicate.
(§3) In this experiment, each of the following cell lines: Ba/F3-tel/trkA, Ba/F3-tel/trkA-10nMA (G595R), KM12-DMSO, KM12-30nM101-B (G667C), KM12-100nM101-B (G667C), KM12-300nM101-B (G595R) was screened against a number of chemical compounds.

Assay [2] has as its system mutant cells harboring the TrkA-G595C mutation or the TrkA-G667C mutation. As to the kind of experiment: screen for inhibition of proliferation of mutant KM12 and Ba/F3-tel/trkA cells. The format is cell-based. The protocol:
as §2, §3

The test system of assay [3] is KM12-TPM3/trkA_G667C cells. Briefly: growth inhibition screen, KM12 mutant cells with G667C. The format is cell-based, human. The method, then: as §2, §3
The next assay has as its target T4, BaF3-tel/trkA_WT cells (Homo sapiens, UniProt P04629).
T4 construct: Input Ba/F3-Tel/TrkA cell line was an engineered cell line harboring a recombinant TrkA fusion gene ETV6-TrkA; fused on or other part: P41212 (Transcription factor ETV6)
Briefly: growth inhibition, parental Ba/F3-tel/trkA cells. The format is cell-based, murine. The protocol:
as §1, §2, §3

For assay [4], the system named is parental KM12 cells (KM12-DMSO; KM12-TPM3/trkA_WT). Briefly: growth inhibition (CellTiter-Glo, 3 days), parental KM12 cells cultured in DMSO. (In general: ATP-based viability assays read luminescence as a measure of living cells.)
In assay [5] the test system is KM12-TPM3/trkA_G595R cells. Briefly: growth inhibition screen, KM12 mutant cells with G595R. The format is cell-based, human. The protocol:
as §2, §3

The subject of assay [6] is BaF3-tel/trkA-10 nMA(G595R) cells. The format is cell-based, murine. The method, then: as §1, §2, §3
In assay [7] the test system is KM12-100 nM-B (no drug) cells. As to the kind of experiment: cells. The conditions noted are these: Homo sapiens. The method, then:
as §2

In a further assay the test system is KM12-1 nM A cells. As to the kind of experiment: cells. The conditions noted are these: Homo sapiens. The protocol: as §2
In another assay the test system is KM12-100 nM A cells. Briefly: cells. Conditions: Homo sapiens. The protocol: as §2
A further assay relates to KM12-30 nM-B cells. Briefly: cells. The conditions noted are these: Homo sapiens. The protocol:
as §2

Another assay concerns KM12-10 nM A cells. Briefly: cells. The conditions noted are these: Homo sapiens. The protocol:
as §2

In a further assay the test system is KM12-300 nM-B cells. Briefly: cells. The conditions noted are these: Homo sapiens. The method, then:
as §2

Another assay relates to KM12-100 nM-B cells. As to the kind of experiment: cells. Conditions: Homo sapiens. The protocol:
as §2

Another assay has as its system KM12-30 nM A cells. Briefly: cells. The conditions noted are these: for IC50: Homo sapiens. The protocol: as §2
The subject of the next assay is KM12-3 nM A cells. As to the kind of experiment: cells. Conditions: Homo sapiens. The protocol: as §2
[8] abbreviates: Table 8, cells without unit, read-out: IC50 (the source's name).
The mark [9] stands for this setting: Table 9, read-out: IC50 (the source's name).
[10] abbreviates: Homo sapiens, KM12-TPM3/trkA_G667C, Table 8, in μM, read-out: IC50.
The mark [11] stands for this setting: Homo sapiens, KM12-TPM3/trkA_G595R, Table 8, in μM, read-out: IC50.
Setting [12] is: Table 8, in μM, read-out: IC50 (the source's name).

T2 sequence (Q16288 whole entry, change not shown, the tested form may be a part): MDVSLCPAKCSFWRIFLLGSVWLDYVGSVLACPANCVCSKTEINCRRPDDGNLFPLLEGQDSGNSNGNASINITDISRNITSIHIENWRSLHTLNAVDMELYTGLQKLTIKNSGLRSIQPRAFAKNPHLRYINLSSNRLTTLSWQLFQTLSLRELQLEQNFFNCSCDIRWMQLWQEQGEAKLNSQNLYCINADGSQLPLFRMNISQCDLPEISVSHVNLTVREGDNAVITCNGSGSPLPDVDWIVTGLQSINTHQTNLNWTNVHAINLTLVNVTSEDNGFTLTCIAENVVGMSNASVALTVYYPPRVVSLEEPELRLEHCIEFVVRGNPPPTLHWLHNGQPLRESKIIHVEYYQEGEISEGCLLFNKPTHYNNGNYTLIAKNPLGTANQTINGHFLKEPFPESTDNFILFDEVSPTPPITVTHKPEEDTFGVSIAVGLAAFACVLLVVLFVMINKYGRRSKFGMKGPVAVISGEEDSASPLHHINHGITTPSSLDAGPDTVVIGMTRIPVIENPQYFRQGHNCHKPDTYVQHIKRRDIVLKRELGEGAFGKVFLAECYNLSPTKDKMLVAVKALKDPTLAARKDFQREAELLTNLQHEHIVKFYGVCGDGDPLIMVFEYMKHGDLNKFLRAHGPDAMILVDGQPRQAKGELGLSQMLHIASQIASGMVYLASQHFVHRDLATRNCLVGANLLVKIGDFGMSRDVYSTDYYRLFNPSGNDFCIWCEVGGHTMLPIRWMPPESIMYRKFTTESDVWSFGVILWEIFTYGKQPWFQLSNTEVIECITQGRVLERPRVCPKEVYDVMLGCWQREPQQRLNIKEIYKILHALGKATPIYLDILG
T4 sequence (P04629 whole entry, change not shown, the tested form may be a part): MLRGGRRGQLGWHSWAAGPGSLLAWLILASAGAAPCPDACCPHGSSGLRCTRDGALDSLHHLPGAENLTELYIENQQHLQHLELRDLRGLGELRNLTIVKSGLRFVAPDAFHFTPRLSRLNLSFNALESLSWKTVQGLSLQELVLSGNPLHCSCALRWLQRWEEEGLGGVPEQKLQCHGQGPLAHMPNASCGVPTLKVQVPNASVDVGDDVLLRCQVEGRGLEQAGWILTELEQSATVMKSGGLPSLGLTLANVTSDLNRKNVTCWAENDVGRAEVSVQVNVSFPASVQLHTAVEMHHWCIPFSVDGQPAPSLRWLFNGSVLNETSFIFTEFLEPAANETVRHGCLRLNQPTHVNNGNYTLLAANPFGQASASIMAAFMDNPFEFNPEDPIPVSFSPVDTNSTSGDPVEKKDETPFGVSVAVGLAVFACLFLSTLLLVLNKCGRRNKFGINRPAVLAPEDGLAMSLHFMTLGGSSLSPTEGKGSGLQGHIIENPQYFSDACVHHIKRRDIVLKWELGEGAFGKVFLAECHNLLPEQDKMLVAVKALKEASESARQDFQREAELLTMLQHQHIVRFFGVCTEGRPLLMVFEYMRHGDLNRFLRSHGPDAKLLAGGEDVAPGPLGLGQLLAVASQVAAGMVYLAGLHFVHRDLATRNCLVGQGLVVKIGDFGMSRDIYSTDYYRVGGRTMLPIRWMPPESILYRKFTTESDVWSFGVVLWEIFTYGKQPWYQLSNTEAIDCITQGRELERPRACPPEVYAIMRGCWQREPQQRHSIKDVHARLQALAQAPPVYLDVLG
T3 sequence (P04629 whole entry G595R, the tested form may be a part): as the sequence (P04629 whole entry, change not shown, the tested form may be a part) above, with G595R counted along it
T1 sequence (Q16620 whole entry, change not shown, the tested form may be a part): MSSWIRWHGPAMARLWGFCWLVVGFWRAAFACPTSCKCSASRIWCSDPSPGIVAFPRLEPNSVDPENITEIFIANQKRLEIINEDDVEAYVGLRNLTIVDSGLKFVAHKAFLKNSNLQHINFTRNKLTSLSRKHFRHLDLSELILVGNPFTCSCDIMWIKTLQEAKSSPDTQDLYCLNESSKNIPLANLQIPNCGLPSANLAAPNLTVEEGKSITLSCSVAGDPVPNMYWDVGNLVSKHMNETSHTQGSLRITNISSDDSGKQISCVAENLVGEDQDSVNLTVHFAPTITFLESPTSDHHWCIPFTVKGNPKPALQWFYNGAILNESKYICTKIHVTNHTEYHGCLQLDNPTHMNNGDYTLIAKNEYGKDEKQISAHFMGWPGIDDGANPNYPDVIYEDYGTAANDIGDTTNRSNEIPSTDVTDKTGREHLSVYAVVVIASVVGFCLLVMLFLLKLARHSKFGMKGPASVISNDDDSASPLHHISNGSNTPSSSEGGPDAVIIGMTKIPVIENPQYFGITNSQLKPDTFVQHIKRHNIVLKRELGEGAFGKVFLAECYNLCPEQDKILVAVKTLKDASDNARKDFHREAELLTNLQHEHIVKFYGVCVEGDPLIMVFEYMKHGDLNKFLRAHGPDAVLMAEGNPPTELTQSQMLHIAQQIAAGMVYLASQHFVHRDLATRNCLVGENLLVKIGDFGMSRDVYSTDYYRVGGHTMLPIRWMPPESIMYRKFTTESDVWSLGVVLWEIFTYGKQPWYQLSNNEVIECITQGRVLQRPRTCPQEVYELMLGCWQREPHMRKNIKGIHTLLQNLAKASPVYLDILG

Take `CC(C)Oc1cc(Nc2nc(N[C@@H](C)c3ccc(F)cn3)ncc2Cl)n[nH]1` [AZ-23, 5-chloro-2-N-[(1S)-1-(5-fluoropyridin-2-yl)ethyl]-4-N-(3-propan-2-yloxy-1H-pyrazol-5-yl)pyrimidine-2,4-diamine]: the GI50 on BaF3-tel/trkB cells is 3.3 nM; on BaF3-tel/trkC cells (read-out: IC50, Table 9) it was 2.2 nM.

A word on the IC50: it is the midpoint of a concentration-inhibition curve. On to `COC[C@@H](C)Nc1cc(N2CCN(C)CC2)ccc1C(=O)Nc1n[nH]c2ccc(S(=O)(=O)c3cc(F)cc(F)c3)cc12` [Compound 2, N-[5-(3,5-difluoro-benzenesulfonyl)-1H-indazol-3-yl]-2-((R)-2-methoxy-1-methyl-ethylamino)-4-(4-methyl-piperazin-1-yl) benzamide], for which the GI50 in [1] (setting [8]) came to 0.846 µM; at BaF3-tel/trkA_WT cells (setting [8]) it was 0.0023 µM. Besides, the “inhibitory activity against mutant cells” value in assay [2] was “significant inhibitory activity”. Further, the IC50 in [3] (KM12-TPM3/trkA_G667C, Table 8, cells without unit, read-out: IC50) is 0.466 µM; in assay [4] (KM12-TPM3/trkA_WT, Table 8, cells without unit), 6.1 nM; in assay [5] (KM12-TPM3/trkA_G595R, Table 8, cells without unit, read-out: IC50), 0.424 µM.

On to `COC(=O)[C@@]1(O)C[C@H]2O[C@]1(C)n1c3ccccc3c3c4c(c5c6ccccc6n2c5c31)C(=O)NC4` [Compound K252a, 9,12-Epoxy-1H-diindolo[1,2,3-fg:3′,2′,1′-kl]pyrrolo[3,4-i][1,6]benzodiazocine-10-carboxylic acid, 2,3,9,10,11,12-hexahydro-10-hydroxy-9-methyl-1-oxo-, methyl ester, (9S,10R,12R)-], for which the GI50 at BaF3-tel/trkB cells amounted to 45.3 nM; on BaF3-tel/trkC cells (setting [9]), 14.3 nM.

Take `O=C(Nc1cnn2ccc(N3CCC[C@@H]3c3cc(F)ccc3F)nc12)N1CC[C@H](O)C1` [LOXO-101, (3S)-N-[5-[(2R)-2-(2,5-difluorophenyl)-1-pyrrolidinyl]pyrazolo[1,5-a]pyrimidin-3-yl]-3-hydroxy-1-pyrrolidinecarboxamide]: the IC50 was over 1 µM in [3] (setting [10]); 27 nM in assay [4] (Homo sapiens, KM12); over 1 µM in [5] (setting [11]).

Regarding `COc1cc(N2CCC(N3CCN(C)CC3)CC2)ccc1Nc1ncc(Cl)c(Nc2ccccc2S(=O)(=O)C(C)C)n1` [NVP-TAE684, 5-chloro-N2-[2-methoxy-4-[4-(4-methyl-1-piperazinyl)-1-piperidinyl]phenyl]-N4-[2-[(1-methylethyl)sulfonyl]phenyl]-2,4-Pyrimidinediamine], the “inhibitory activity against mutant cells” value in [2] is reported as “significant inhibitory activity”.

As to `C[C@H]1Oc2cc(cnc2N)-c2c(nn(C)c2C#N)CN(C)C(=O)c2ccc(F)cc21` [PF06463922, (10R)-7-amino-12-fluoro-10,15,16,17-tetrahydro-2,10,16-trimethyl-15-oxo-2H-4,8-Methenopyrazolo[4,3-h][2,5,11]benzoxadiazacyclotetradecine-3-carbonitrile], the GI50 in assay [1] (read-out: IC50, Table 8, in μM) is over 1 µM; on BaF3-tel/trkA_WT cells (read-out: IC50, Table 8, cells without unit) it was 0.386 µM. Besides, the IC50 was over 1 µM in [3] (Homo sapiens, KM12); 206 nM in assay [4] (Homo sapiens, KM12); over 1 µM in assay [5] (Homo sapiens, KM12).

Regarding `CN[C@@H]1C[C@H]2O[C@@](C)([C@@H]1OC)n1c3ccccc3c3c4c(c5c6ccccc6n2c5c31)C(=O)NC4` [Staurosporine, 9,13-Epoxy-1H,9H-diindolo[1,2,3-gh:3′,2′,1′-lm]pyrrolo[3,4-j][1,7]benzodiazonin-1-one, 2,3,10,11,12,13-hexahydro-10-methoxy-9-methyl-11-(methylamino)-, (9S,10R,11R,13R)-], the GI50 on BaF3-tel/trkB cells was found to be 4.2 nM.

As for `Cc1cc(Nc2ncc(Cl)c(Nc3ccccc3S(=O)(=O)C(C)C)n2)c(OC(C)C)cc1C1CCNCC1` [ceritinib, 5-chloro-2-N-(5-methyl-4-piperidin-4-yl-2-propan-2-yloxyphenyl)-4-N-(2-propan-2-ylsulfonylphenyl)pyrimidine-2,4-diamine], the GI50 (in assay [1] (setting [12]); on BaF3-tel/trkA_WT cells (setting [12])) was over 1 µM each time. Also, the concentration for half-maximal inhibition (IC50) in assay [3] (setting [10]) is over 1 µM; in assay [4] (Homo sapiens, KM12), 269 nM; in assay [5] (setting [11]), over 1 µM.

`C[C@@H](Oc1cc(-c2cnn(C3CCNCC3)c2)cnc1N)c1c(Cl)ccc(F)c1Cl` [crizotinib, (R)-3-[1-(2,6-Dichloro-3-fluorophenyl)ethoxy]-5-[1-(piperidin-4-yl)-1H-pyrazol-4-yl]pyridin-2-amine]: the GI50 in [1] (setting [8]) was 0.433 µM; on BaF3-tel/trkA_WT cells (setting [8]), 0.179 µM. For the same compound, the IC50 is over 1 µM in assay [3] (setting [10]); 76.6 nM in [4] (Homo sapiens, KM12); over 1 µM in assay [5] (setting [11]).

Take `CN1CCN(c2ccc(C(=O)Nc3n[nH]c4ccc(Cc5cc(F)cc(F)c5)cc34)c(NC3CCOCC3)c2)CC1` [entrectinib, N-[5-(3,5-difluorobenzyl)-1H-indazol-3-yl]-4-(4-methyl-piperazin-1-yl)-2-(tetrahydro-pyran-4-ylamino)-benzamide]: the “IC50 higher than that of the control parental line” value in assay [6] is listed as over 100 fold. In [2], the “inhibitory activity against mutant cells” value is on record as “significant inhibitory activity”. Moreover, the GI50 at BaF3-tel/trkB cells amounted to 8.7 nM; on BaF3-tel/trkC cells (setting [9]), 5.5 nM. Moreover, the IC50 in assay [3] (Homo sapiens, KM12) was found to be 0.367 µM; in [7] it was 85.4 nM; with KM12-1 nM A cells (KM12), 4.19 nM; with KM12-1 nM A cells (KM12, 72 h), 1.57 nM; in the assay on KM12-100 nM A cells, 6.62 nM; with KM12-30 nM-B cells, 93.8 nM. Also, the IC50 in the assay with KM12-10 nM A cells (KM12) worked out at 4.65 nM; with KM12-10 nM A cells (KM12, 72 h), 1.71 nM; in the assay with KM12-300 nM-B cells, 209 nM; in the assay on KM12-100 nM-B cells, 70.4 nM; in the assay on KM12-30 nM A cells (KM12), 6.47 nM; with KM12-30 nM A cells (KM12, 72 h) it was 3.41 nM. Also, the half-maximal inhibitory concentration (IC50) with KM12-3 nM A cells (KM12) was found to be 4.36 nM; in the assay on KM12-3 nM A cells (KM12, 72 h), 1.64 nM; in assay [4] (Homo sapiens, KM12, 72 h, KM12-DMSO-A, 3-day growth inhibition, Table 3), 1.26 nM; in assay [4] (Homo sapiens, KM12, 672 h, KM12-DMSO, Table 4, after about 4 weeks of increased entrectinib in Set A), 3.95 nM; in assay [4] (Homo sapiens, KM12, KM12-DMSO-B, Table 5), 1.14 nM; in assay [4] (Homo sapiens, KM12, KM12-TPM3/trkA_WT, Table 8, cells without unit) it was 3.4 nM. Besides, in the assay with KM12-30 nM A cells (KM12-30 nM-A treated cells versus cells cultured in DMSO and 1-10 nM entrectinib), the “increase of IC50 value” is reported as about 2 fold.

Regarding `CNC(=O)c1cc(Oc2ccc(NC(=O)Nc3cc(C(C)(C)C)nn3-c3ccc4ncccc4c3)c(F)c2)ccn1` [rebastinib, 4-[4-[(5-tert-butyl-2-quinolin-6-ylpyrazol-3-yl)carbamoylamino]-3-fluorophenoxy]-N-methylpyridine-2-carboxamide], in assay [2], the “inhibitory activity against mutant cells” value is listed as “significant inhibitory activity”.
